Experimental data published in ChEMBL document CHEMBL5233265, “Recent advances in the design and development of formyl peptide receptor 2 (FPR2/ALX) agonists as pro-resolving agents with diverse therapeutic potential” (Eur J Med Chem, 2021).

Assays:
[1] = target: T1, N-formyl peptide receptor 2 (Homo sapiens, UniProt P25090); assay: Agonist activity at human FPR2 transfected in HL-60 cells assessed as increase in intracellular calcium flux incubated for 30 mins by Fluo-4 AM dye based fluorometer analysis; assay type: cell-based; conditions: read-out: EC50
T1 sequence (P25090 whole entry): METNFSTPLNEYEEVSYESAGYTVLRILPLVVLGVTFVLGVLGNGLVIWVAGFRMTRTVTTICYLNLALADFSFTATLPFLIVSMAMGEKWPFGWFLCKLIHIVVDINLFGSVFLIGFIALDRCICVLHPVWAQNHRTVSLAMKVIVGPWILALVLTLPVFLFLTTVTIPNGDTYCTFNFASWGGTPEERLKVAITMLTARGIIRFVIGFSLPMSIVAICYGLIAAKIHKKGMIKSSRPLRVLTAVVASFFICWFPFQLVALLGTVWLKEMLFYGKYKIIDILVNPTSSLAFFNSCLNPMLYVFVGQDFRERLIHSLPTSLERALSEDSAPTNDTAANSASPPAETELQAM

fMet-Leu-Phe receptor [2] = target: T2, fMet-Leu-Phe receptor (Homo sapiens, UniProt P21462); assay: Agonist activity at human FPR1 transfected in HL-60 cells assessed as increase in intracellular calcium flux incubated for 30 mins by Fluo-4 AM dye based fluorometer analysis; assay type: cell-based; conditions: read-out: EC50
T2 sequence (P21462 whole entry): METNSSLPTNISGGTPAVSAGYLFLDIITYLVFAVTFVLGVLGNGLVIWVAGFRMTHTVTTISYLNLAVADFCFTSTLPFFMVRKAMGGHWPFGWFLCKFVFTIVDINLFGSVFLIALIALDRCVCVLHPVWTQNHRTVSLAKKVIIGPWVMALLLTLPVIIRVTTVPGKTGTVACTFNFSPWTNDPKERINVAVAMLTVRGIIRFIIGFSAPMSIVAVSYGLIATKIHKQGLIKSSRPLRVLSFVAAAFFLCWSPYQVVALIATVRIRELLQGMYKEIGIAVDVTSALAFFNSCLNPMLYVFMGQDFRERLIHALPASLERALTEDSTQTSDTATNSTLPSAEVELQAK

[3] = target: T3, N-formyl peptide receptor 2 (Homo sapiens) (UniProt P25090); assay: Agonist activity at human FPR2 transfected in HL-60 cells assessed as maximal intracellular calcium flux incubated for 30 mins by Fluo-4 AM dye based fluorometer analysis relative to control; assay type: cell-based; conditions: filed as agonist
T3 sequence (whole entry): T1 sequence (P25090 whole entry)

[4] = target: T4, fMet-Leu-Phe receptor (Homo sapiens) (UniProt P21462); assay: Agonist activity at human FPR1 transfected in HL-60 cells assessed as maximal intracellular calcium flux incubated for 30 mins by Fluo-4 AM dye based fluorometer analysis relative to control; assay type: cell-based; conditions: filed as agonist
T4 sequence (whole entry): T2 sequence (P21462 whole entry)

Mus musculus [5] = assay: Anti-inflammatory activity against BALB/c mouse assessed as suppression ratio of LPS-induced neutrophil infiltration in lung at 1 mg/kg,po measured after 5.5 hrs by Diff-Quick staining based microscopic analysis; assay type: functional
[6] = target: T1, N-formyl peptide receptor 2; assay: Agonist activity at human FPR2 expressed in HEK293 cells assessed as increase in calcium flux incubated for 45 mins by Fluo-4 AM dye based fluorescence assay; assay type: cell-based
Mus musculus [7] = assay: Anti-inflammatory activity against BALB/c mouse assessed as suppression ratio of LPS-induced neutrophil infiltration in lung at 3 mg/kg,po measured after 5.5 hrs by Diff-Quick staining based microscopic analysis; assay type: functional
[8] = target: T1, N-formyl peptide receptor 2; assay: Agonist activity at human FPR2 expressed in CHO-A12 cells assessed as cAMP level incubated for 1.5 hr by HTRF assay; assay type: cell-based
[9] = Agonist activity at rat FPR1 expressed in CHO-A12 cells assessed as cAMP level incubated for 1.5 hr by HTRF assay; assay type: cell-based
[10] = Agonist activity at rat FPR2 expressed in CHO-A12 cells assessed as cAMP level incubated for 1.5 hr by HTRF assay; assay type: cell-based
HL-60 = assay: Inhibition of cell migration in human HL-60 cells incubated for 135 mins by transwell assay; assay type: functional, cell-based; conditions: HL-60, 2.25 h
Peritoneal macrophage = assay: Induction of phagocytosis in C57BL6 mouse peritoneal macrophages assessed as increase in FITC signal preincubated with compound for 15 mins followed by zymosan addition and measured after 90 mins by Trypan Blue based FITC analysis
Mus musculus [11] = assay: Neuroprotective activity against coronary artery occlusion mouse model assessed as reduction in left ventricular chamber dilatation at 0.3 mg/kg,po measured after […]; assay type: functional; parameters: scale not given: the % may be the effect or the level left
Mus musculus [12] = assay: Neuroprotective activity against coronary artery occlusion mouse model assessed as reduction in left ventricular chamber dilatation at 3 mg/kg,po measured after […]; assay type: functional; parameters: scale not given: the % may be the effect or the level left
Mus musculus [13] = assay: Neuroprotective activity against angiotensin II induced cardiac fibrosis mouse model assessed as reduction in fibrosis at 3 mg/kg,po qd measured after 3 weeks; assay type: functional; parameters: scale not given: the % may be the effect or the level left
Mus musculus [14] = assay: Neuroprotective activity against DOCA induced cardiac fibrosis mouse model assessed as reduction in left ventricular fibrosis at 1 mg/kg,po qd measured after 3 weeks; assay type: functional; parameters: scale not given: the % may be the effect or the level left
fMet-Leu-Phe receptor [15] = target: T2, fMet-Leu-Phe receptor; assay: Agonist activity at human recombinant FPR1 stably transfected in Flp-In-CHO cells assessed as increase in intracellular calcium mobilization incubated for 1 hr by Fluo-4 AM dye based fluorescence plate reader assay; assay type: cell-based
[16] = target: T1, N-formyl peptide receptor 2; assay: Agonist activity at human recombinant FPR2 stably transfected in Flp-In-CHO cells assessed as increase in intracellular calcium mobilization incubated for 1 hr by Fluo-4 AM dye based fluorescence plate reader assay; assay type: cell-based
[17] = target: T4, fMet-Leu-Phe receptor (Homo sapiens); assay: Agonist activity at human recombinant FPR1 stably transfected in Flp-In-CHO cells assessed as maximal intracellular calcium mobilization at 10 uM incubated for 1 hr by Fluo-4 AM dye based fluorescence plate reader assay relative to control; assay type: cell-based
[18] = target: T3, N-formyl peptide receptor 2 (Homo sapiens); assay: Agonist activity at human recombinant FPR2 stably transfected in Flp-In-CHO cells assessed as maximal intracellular calcium mobilization at 10 uM incubated for 1 hr by Fluo-4 AM dye based fluorescence plate reader assay relative to control; assay type: cell-based
fMet-Leu-Phe receptor [19] = target: T2, fMet-Leu-Phe receptor; assay: Agonist activity at human recombinant FPR1 stably transfected in Flp-In-CHO cells assessed as ERK1/2 phosphorylation incubated for 1 hr by Alphascreen fluorescence assay; assay type: cell-based
[20] = target: T1, N-formyl peptide receptor 2; assay: Agonist activity at human recombinant FPR2 stably transfected in Flp-In-CHO cells assessed as ERK1/2 phosphorylation incubated for 1 hr by Alphascreen fluorescence assay; assay type: cell-based
[21] = target: T4, fMet-Leu-Phe receptor (Homo sapiens); assay: Agonist activity at human recombinant FPR1 stably transfected in Flp-In-CHO cells assessed as ERK1/2 phosphorylation at 10 uM incubated for 1 hr by Alphascreen fluorescence assay relative to control; assay type: cell-based; conditions: filed as agonist
[22] = target: T3, N-formyl peptide receptor 2 (Homo sapiens); assay: Agonist activity at human recombinant FPR2 stably transfected in Flp-In-CHO cells assessed as ERK1/2 phosphorylation at 10 uM incubated for 1 hr by Alphascreen fluorescence assay relative to control; assay type: cell-based
[23] = target: T1, N-formyl peptide receptor 2; assay: Agonist activity at human FPR2 transfected in HL-60 cells assessed as increase in intracellular calcium flux incubated for 30 mins by Fluo-4 AM dye based FLIPR-fluorometeric assay; assay type: cell-based
fMet-Leu-Phe receptor [24] = target: T2, fMet-Leu-Phe receptor; assay: Agonist activity at human FPR1 transfected in HL-60 cells assessed as increase in intracellular calcium flux incubated for 30 mins by Fluo-4 AM dye based FLIPR-fluorometeric assay; assay type: cell-based
[25] = target: T3, N-formyl peptide receptor 2 (Homo sapiens); assay: Agonist activity at human FPR2 transfected in HL-60 cells assessed as maximal intracellular calcium flux incubated for 30 mins by Fluo-4 AM dye based FLIPR-fluorometeric assay relative to control; assay type: cell-based; conditions: filed as agonist
[26] = Agonist activity at FPR in human PMNL cells assessed as increase in intracellular calcium mobilization incubated for 30 mins by Fluo-4 AM dye based FLIPR-fluorometeric assay; assay type: cell-based; conditions: 0.5 h
PMNL = assay: Agonist activity at FPR in human PMNL cells assessed as maximal intracellular calcium mobilization incubated for 30 mins by Fluo-4 AM dye based FLIPR-fluorometeric assay relative to control; assay type: cell-based; conditions: filed as agonist
[27] = target: T1, N-formyl peptide receptor 2; assay: Agonist activity at FPR2 (unknown origin) assessed as increase in calcium flux
[28] = Agonist activity at FPR in human PMNL cells assessed as increase in intracellular calcium mobilization incubated for 30 mins by Fluo-4 AM dye based fluorometer analysis; assay type: cell-based; conditions: 0.5 h
[29] = target: T4, fMet-Leu-Phe receptor (Homo sapiens); assay: Agonist activity at human FPR1 transfected in HL-60 cells assessed as maximal intracellular calcium flux incubated for 30 mins by Fluo-4 AM dye based FLIPR-fluorometeric assay relative to control; assay type: cell-based; conditions: filed as agonist

COc1ccc(NC(=O)N[C@@H](Cc2ccc(O)cc2)C(=O)NCC2(c3ccccc3)CC2)cc1
EC50 [1]: 2900 nM | EC50 (fMet-Leu-Phe receptor [2]): 1500 nM | Emax [3]: 130% | Emax [4]: 95%

N#Cc1ccc(NC(=O)N[C@@H]2C(=O)NC[C@H]2c2cc3c(cc2F)OCC3)cc1
Ratio (Mus musculus [5]): 99.2%

COc1cc(F)c([C@@H]2CNC(=O)[C@H]2NC(=O)Nc2ccc(C)cc2)c(F)c1
EC50 [6]: 0.86 nM | Ratio (Mus musculus [7]): 57%

COc1ccc(C[C@H](NC(=O)Nc2ccc(Cl)cc2)c2noc(CCO)n2)cc1
EC50 [6]: 0.17 nM | Ratio (Mus musculus [7]): 94%

COc1ccc(NC(=O)N[C@@H]2/C(=N/OCCO)NC[C@H]2c2c(F)cc(OC)cc2F)cc1
EC50 [6]: 0.27 nM | Ratio (Mus musculus [5]): 96.8%

N/C(=N\C(=O)CCO)[C@H](Cc1ccc(Cl)cc1)NC(=O)Nc1ccc(Cl)cc1
Ratio (Mus musculus [7]): 86%

COc1cc(F)c([C@@H]2CNC(=O)[C@H]2NC(=O)Nc2ccccc2)c(F)c1 [BMS-986235]
EC50 [8]: 1250 nM | EC50 [9]: 1.5 nM | EC50 [10]: 720 nM | IC50 (HL-60): 57 nM | EC50 (Peritoneal macrophage): 2 nM | Activity (Mus musculus [11]): 26% | Activity (Mus musculus [12]): 24% | Activity (Mus musculus [13]): 89% | Activity (Mus musculus [14]): 50%

COc1cccc(Cc2cc(C)nn([C@H](C)C(=O)Nc3ccc(Cl)cc3)c2=O)c1
EC50 (fMet-Leu-Phe receptor [15]): 3980 nM | EC50 [16]: > 10000 nM | Emax [17]: 38% | Emax [18]: 8% | EC50 (fMet-Leu-Phe receptor [19]): 794 nM | EC50 [20]: 1260 nM | Emax [21]: 82% | Emax ([22]; filed as agonist): 85%

COc1cccc(Cc2cc(C)nn([C@@H](C)C(=O)Nc3ccc(Cl)cc3)c2=O)c1
EC50 (fMet-Leu-Phe receptor [15]): > 10000 nM | EC50 [16]: > 10000 nM | Emax [17]: 16% | Emax [18]: 4% | EC50 (fMet-Leu-Phe receptor [19]): 1260 nM | EC50 [20]: > 10000 nM | Emax [21]: 78% | Emax [22]: 8%

COc1ccc(NC(=O)N[C@H](Cc2ccc(O)cc2)C(=O)NCC2(c3ccccc3)CC2)cc1
EC50 ([1]; hl-60): 410 nM | EC50 (fMet-Leu-Phe receptor [2]; hl-60): 5100 nM | Emax [3]: 90% | Emax [4]: 55%

COc1cccc(Cc2cc(C)nn(C(C)C(=O)Nc3ccc(Cl)cc3)c2=O)c1 (racemic)
EC50 (fMet-Leu-Phe receptor [15]): 7940 nM | EC50 [16]: > 10000 nM | Emax [17]: 22% | Emax [18]: 6% | EC50 (fMet-Leu-Phe receptor [19]): 1000 nM | EC50 [20]: 1580 nM | Emax [21]: 70% | Emax ([22]; filed as agonist): 82%

COc1cccc(Cc2c(-c3ccccc3)c(C)nn(CC(=O)Nc3ccc(Br)cc3)c2=O)c1
EC50 [23]: 150 nM | EC50 (fMet-Leu-Phe receptor [24]): Not Active | Emax [25]: 115% | EC50 [26]: 200 nM | Emax (PMNL): 110%

COc1cc(F)c([C@@H]2CN3CCON=C3[C@H]2NC(=O)Nc2ccc(F)cc2)c(F)c1
EC50 [27]: 0.02 nM

O=C(Cn1c(=O)[nH]cc(-c2ccccc2)c1=O)Nc1ccc(Br)cc1
EC50 [1]: 8900 nM | EC50 (fMet-Leu-Phe receptor [2]): 12500 nM | EC50 [28]: 4500 nM

COc1cccc(Cc2c(C)c(C)nn(CC(=O)Nc3ccc(Br)cc3)c2=O)c1
Emax [25]: 80% | Emax [29]: 85% | EC50 [26]: 19 nM | Emax (PMNL): 85%

COc1cccc(-c2cc(C#N)c(C)n(CC(=O)Nc3ccc(Br)cc3)c2=O)c1
EC50 [1]: 120 nM | EC50 (fMet-Leu-Phe receptor [2]): 1600 nM | EC50 [28]: 390 nM

CCN1C[C@@H](c2ccc(OC)cc2)[C@H](NC(=O)Nc2ccc(F)cc2)C1=O
EC50 [6]: 0.13 nM | Ratio (Mus musculus [7]): 97.4%

COc1ccc(Cc2c(C)c(C)nn(CC(=O)Nc3ccc(Br)cc3)c2=O)cc1
EC50 ([23]; hl-60): 13 nM | EC50 (fMet-Leu-Phe receptor [24]; read-out: EC50): 900 nM | Emax [25]: 95% | Emax [29]: 60% | EC50 [26]: 270 nM | Emax (PMNL): 140%
